Laboratory results reported in PMC12298876, “Angiotensin-Converting Enzyme Inhibitory Activity of Selected Phenolic Acids, Flavonoids, Their O-Glucosides, and Low-Molecular-Weight Phenolic Metabolites in Relation to Their Oxidation Potentials” (Metabolites, 2025).
“And” between values parts separate entries of the source, which are not always exact repeats. Equal values may be shown once. Read-outs that look alike come from different tables or passages of the source. Marks after values point to notes of the source that are not given here.

Columns and labels:
[1] = First anodic oxidation potential by differential pulse voltammetry (DPV); format: physicochemical; details: for Anodic Peak Potential Epa: DPV, first anodic peak, 0.25 mM standard in 0.1 M Britton-Robinson buffer pH 6.0 in 80% methanol, glassy carbon vs Ag/AgCl, 100 mV/s; for antioxidant power class based on the first oxidation potential: classes according to Blasco et al. [47]
Protocol: A potentiostat/galvanostat G 750 (Gamry Instruments, Warminster, USA) was used for voltametric experiments. A conventional three-electrode system: a 3 mm diameter glassy carbon working electrode (BAS MF-2012), an Ag/AgCl electrode as a reference electrode, and a platinum as counter electrode, was used in the study. Differential pulse voltametric experiments were performed with phenolic acids and flavonoids prepared in a 1:1 (v/v) mixture of 500 µM standard solution and […] Britton-Robinson (B-R) buffer (pH 6.0 in 80% methanol), which also served as a supporting electrolyte. The voltametric experiments were performed at room temperature using an electrochemical cell (volume 200 µL), to which the analyzed standard solution, mixed previously with the buffer solution, was introduced. The differential pulse voltammograms were acquired in the range of −100 to 1300 mV at a scanning rate of 100 mV/s. Before use, the surface of the glassy carbon electrode was carefully polished with 0.05 µm alumina paste, ultrasonically rinsed in deionized water, and then washed with methanol. This procedure was repeated after each cycle. For test purposes, the first anodic oxidation potential was recorded (mV).

[2] = molecular target: T1, Angiotensin-converting enzymes (ACE) from porcine kidneys (EC 3.4.15.1) (Sus scrofa, UniProt F1RRW5); assay: biochemical; details: for ACE inhibitory activity lower than that of reduced glutathione (GSH): ratio to the IC50 of GSH; for lower IC50 in relation to the respective aglycone / higher value of IC50 as compared to the IC50 of the respective aglycon: ACE inhibition; for lower IC50 in relation to the respective aglycone: glycoside vs aglycon; for higher value of IC50 as compared to the IC50 of the respective aglycon: glucoside vs aglycon
T1 construct: Angiotensin-converting enzymes (ACE) from porcine kidneys (EC 3.4.15.1) were purchased from Sigma-Aldrich; purchased Sigma-Aldrich (St. Louis, MO, USA); host or cells: porcine kidneys (tissue-derived enzyme)
T1 sequence (F1RRW5 34-1309): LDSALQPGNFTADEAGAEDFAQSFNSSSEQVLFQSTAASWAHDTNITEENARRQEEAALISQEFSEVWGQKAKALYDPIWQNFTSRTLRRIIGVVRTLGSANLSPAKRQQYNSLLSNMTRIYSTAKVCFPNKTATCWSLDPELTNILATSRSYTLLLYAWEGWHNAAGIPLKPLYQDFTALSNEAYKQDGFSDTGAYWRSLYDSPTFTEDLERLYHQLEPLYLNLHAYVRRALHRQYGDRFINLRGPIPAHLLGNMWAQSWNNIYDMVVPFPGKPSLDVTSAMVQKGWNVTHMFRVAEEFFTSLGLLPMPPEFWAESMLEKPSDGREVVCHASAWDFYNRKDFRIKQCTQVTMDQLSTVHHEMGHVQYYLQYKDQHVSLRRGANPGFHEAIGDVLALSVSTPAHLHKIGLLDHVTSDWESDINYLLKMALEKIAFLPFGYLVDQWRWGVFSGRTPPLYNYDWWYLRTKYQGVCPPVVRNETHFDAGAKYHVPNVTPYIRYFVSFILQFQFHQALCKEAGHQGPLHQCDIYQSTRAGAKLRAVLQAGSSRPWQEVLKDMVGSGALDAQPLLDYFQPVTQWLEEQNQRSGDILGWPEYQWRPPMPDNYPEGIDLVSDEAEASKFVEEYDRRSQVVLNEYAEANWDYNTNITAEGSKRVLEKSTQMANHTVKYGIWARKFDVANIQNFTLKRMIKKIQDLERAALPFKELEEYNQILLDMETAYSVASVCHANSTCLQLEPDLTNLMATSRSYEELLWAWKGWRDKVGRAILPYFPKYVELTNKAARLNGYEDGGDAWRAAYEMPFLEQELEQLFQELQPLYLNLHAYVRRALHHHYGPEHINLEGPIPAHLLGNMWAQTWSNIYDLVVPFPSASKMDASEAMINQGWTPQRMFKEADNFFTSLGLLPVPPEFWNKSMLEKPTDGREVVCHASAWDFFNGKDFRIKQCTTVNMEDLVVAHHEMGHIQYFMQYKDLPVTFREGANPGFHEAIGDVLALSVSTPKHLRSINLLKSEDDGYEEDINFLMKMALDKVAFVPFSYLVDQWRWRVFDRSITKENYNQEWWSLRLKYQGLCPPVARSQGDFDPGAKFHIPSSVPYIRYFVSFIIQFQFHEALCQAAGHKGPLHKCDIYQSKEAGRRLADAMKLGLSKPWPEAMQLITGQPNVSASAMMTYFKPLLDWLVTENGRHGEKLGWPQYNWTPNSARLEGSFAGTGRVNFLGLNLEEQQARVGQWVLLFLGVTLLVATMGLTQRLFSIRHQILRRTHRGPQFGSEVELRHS
Protocol: Angiotensin-converting enzymes (ACE) from porcine kidneys (EC 3.4.15.1) were purchased from Sigma-Aldrich (St. Louis, MO, USA). A three-tris-base buffer was as follows: buffer A: 300 mM Tris-base buffer (pH 8.3) with 2 mM ZnCl2; buffer B: 150 mM Tris-base buffer (pH 8,3); and buffer C: 150 mM Tris-base buffer (pH 8.3) with […] NaCl. The substrate o-aminobenzoylglycyl-p-nitorphenylalanylproline (Abz-Gly-Phe(NO2)-Pro) was obtained from BACHEM (Bubendorf, Switzerland). Standards of phenolic acids, flavonoids, glucosides, and low-molecular-weight phenolic metabolites were obtained from Sigma-Aldrich (St. Louis, MO, USA) and Extrasynthese (Genay, France). Water was purified using the Mili-Q system (Milipore, Bedford, MA, USA).
Stock solutions at 1 mM of selected phenolic acids, flavonoids, their O-glucosides, and low-molecular-weight phenolic metabolites were prepared in 80% methanol. The concentration was confirmed by a UV measurement according to Franke et al.. A wide range of concentrations of each compound was prepared by serial dilutions in deionized water to determine the IC50 value. […] The ACE inhibitory activity was obtained from three repetitions (n = 3) for each concentration.
Angiotensin-converting enzyme (ACE) activity inhibitory assay was performed according to the method of Sentandreu and Toldra. The procedure was based on the hydrolysis of the internally quenched substrate o-aminobenzoylglycyl-p-nitorphenylalanylproline (Abz-Gly-Phe(NO2)-Pro) by the reaction of ACE. The fluorescence generated by the liberation of the product (the o-aminobenzoylglycine group) was read in a microplate multiscan fluorometer. The production of fluorescence was inhibited by the presence of functional compounds with an ACE inhibitory effect. The fluorescence was measured immediately after mixing (0 min) and then after 30 min of reaction at an excitation of 365 nm and an emission of 405 nm. To calculate the % of inhibition of ACE, the following equation was used:Relative ACE activity% = 100 − (ΔRFUsample × 100/ΔRFUnegative control), where ΔRFU = RFU at time 30 – RFU at time 0.

[3] = low-molecular-weight phenolic metabolites
[4] = porcine kidney ACE, substrate Abz-Gly-Phe(NO2)-Pro, fluorescence after 30 min, mean ± SD, read-out: IC50 Value (ACE inhibitory activity)
[5] = IC50 Value (ACE inhibitory activity), porcine kidney ACE, substrate Abz-Gly-Phe(NO2)-Pro, fluorescence after 30 min, mean ± SD

SMILES | Anodic Peak Potential Epa [1] | IC50 [2, 4] | also measured
O=C(O)CCc1ccccc1O [2-HPPA, 3-(2-hydroxyphenyl)propionic acid] | 781 ± 9 ^d mV | 0.9329 ± 0.00642 mM | antioxidant power class based on the first oxidation potential [1, 3]: moderate antioxidant power (moderate antioxidant power (0.3 V < Epa < 0.8 V))
O=C(O)CCc1ccc(O)c(O)c1 [3,4-DHPPA, 3-(3,4-dihydroxyphenyl)propionic acid] | 218 ± 3 ^h mV | 0.612 ± 0.00651 mM | 
O=C(O)CCc1ccc(O)cc1O [3-2,4-DHPPA, 3-(2,4-dihydroxyphenyl)propionic acid] | 659 ± 8 ^e mV | 0.745 ± 0.00833 mM | antioxidant power class based on the first oxidation potential [1, 3]: moderate antioxidant power (moderate antioxidant power (0.3 V < Epa < 0.8 V))
O=C(O)Cc1cccc(O)c1 [3-HPAA, 3-hydroxyphenylacetic acid] | 883 ± 11 ^b mV | 0.679 ± 0.0077 mM | antioxidant power class based on the first oxidation potential [1, 3]: weak antioxidant power (weak antioxidant power (Epa ˃ 0.8 V))
O=C(O)c1ccc(O)cc1 [4-HBA, 4-hydroxybenzoic acid] | 961 ± 11 ^a mV | 0.788 ± 0.0111 mM | 
O=C(O)Cc1ccc(O)cc1 [4-HPAA, 4-hydroxyphenylacetic acid] | 815 ± 12 ^c mV | 1.391 ± 0.0102 mM | antioxidant power class based on the first oxidation potential [1, 3]: weak antioxidant power (weak antioxidant power (Epa ˃ 0.8 V))
O=C(O)CCc1ccc(O)cc1 [4-HPPA, 3-(4-hydroxyphenyl)propionic acid] | 664 ± 8 ^e mV | 0.49 mM and 0.491 mM | antioxidant power class based on the first oxidation potential [1, 3]: moderate antioxidant power (moderate antioxidant power (0.3 V < Epa < 0.8 V)); ACE inhibitory activity lower than that of reduced glutathione (GSH) [2]: ~12 fold
O=c1cc(-c2ccc(O)cc2)oc2cc(OC3O[C@H](CO)[C@@H](O)[C@H](O)[C@H]3O)cc(O)c12 (stereo partly drawn) [Apigenin-7-O-glucoside] | 841 ± 6 ^ab mV | 0.218 ± 0.00253 mM | lower IC50 in relation to the respective aglycone [2]: 35%
O=C(/C=C/c1ccc(O)c(O)c1)O[C@@H]1C[C@](O)(C(=O)O)C[C@@H](O)[C@H]1O [Chlorogenic acid] | 443 ± 9 ^d mV | 0.134 mM | ACE inhibitory activity lower than that of reduced glutathione (GSH) [2]: threefold
OCC1OC(Oc2cc3c(O)cc(O)cc3[o+]c2-c2ccc(O)c(O)c2)C(O)C(O)C1O (stereo not drawn) [Cyanidin-3-O-glucoside] | 373 ± 4 ^g mV | 0.185 ± 0.00258 mM | higher value of IC50 as compared to the IC50 of the respective aglycon [2]: 5%
Oc1cc(O)c2cc(O)c(-c3ccc(O)c(O)c3)[o+]c2c1 [Cyanidin] | 295 ± 3 ^h mV | 0.176 ± 0.00238 mM | antioxidant power class based on the first oxidation potential ([1]; flavonoids and glucosides): high antioxidant power (high antioxidant power (Ep < 0.3 V))
OCC1OC(Oc2cc3c(O)cc(O)cc3[o+]c2-c2cc(O)c(O)c(O)c2)C(O)C(O)C1O (stereo not drawn) [Delphinidin-3-O-glucoside] | 453 ± 4 ^e mV | 0.2088 ± 0.00133 mM | lower IC50 in relation to the respective aglycone [2]: 16%
Oc1cc(O)c2cc(O)c(-c3cc(O)c(O)c(O)c3)[o+]c2c1 [Delphinidin] | 259 ± 3 ^i mV |  | IC50 [2, 5]: 0.2477 ± 0.00185 mM
COc1cc(/C=C/C(=O)O)ccc1O [Ferulic acid] | 611 ± 6 ^c mV | 0.98 ± 0.0136 mM | IC50 ([2]; values of this study restated in mM in the discussion, read-out: IC50 (ACE inhibition)): 0.98 mM
N[C@@H](CCC(=O)N[C@@H](CS)C(=O)NCC(=O)O)C(=O)O [GSH, reduced glutathione, reference compound] |  | 0.0417 mM | 
O=C(O)c1cc(O)ccc1O [Gentisic acid] | 622 ± 8 ^c mV |  | IC50 ([2]; IC50 (ACE inhibition), values of this study restated in mM in the discussion): 0.834 mM; IC50 [2, 5]: 0.834 ± 0.00926 mM
COc1cc(CC(=O)O)ccc1O [HVA, 2-(3-methoxy-4-hydroxyphenyl)acetic acid] | 643 ± 5 ^e mV |  | antioxidant power class based on the first oxidation potential [1, 3]: moderate antioxidant power (moderate antioxidant power (0.3 V < Epa < 0.8 V)); IC50 [2, 5]: 1.46 mM; ACE inhibitory activity lower than that of reduced glutathione (GSH) [2]: about 35 fold
O=c1c(OC2OC(CO)C(O)C(O)C2O)c(-c2ccc(O)c(O)c2)oc2cc(O)cc(O)c12 [Hyperoside, quercetin-3-O-D-galactoside] | 307 ± 3 ^h mV |  | higher value of IC50 as compared to the IC50 of the respective aglycon [2]: 30%; IC50 [2, 5]: 0.1572 ± 0.00145 mM
O=c1c(OC2OC(CO)C(O)C(O)C2O)c(-c2ccc(O)cc2)oc2cc(O)cc(O)c12 (stereo not drawn) [Kaempferol-3-O-glucoside] | 359 ± 3 ^fg mV |  | lower IC50 in relation to the respective aglycone [2]: 16%; IC50 [2, 5]: 0.11 ± 0.00356 mM
O=c1c(O)c(-c2ccc(O)cc2)oc2cc(OC3OC(CO)C(O)C(O)C3O)cc(O)c12 (stereo not drawn) [Kaempferol-7-O-glucoside] | 419 ± 6 ^f mV | 0.0977 ± 0.00208 mM | lower IC50 in relation to the respective aglycone [2]: 26%
O=c1cc(-c2ccc(OC3OC(CO)C(O)C(O)C3O)c(O)c2)oc2cc(O)cc(O)c12 (stereo not drawn) [Luteolin-4′-O-glucoside] | 828 ± 5 ^b mV | 0.0889 ± 0.00168 mM | higher value of IC50 as compared to the IC50 of the respective aglycon [2]: 15%
O=c1cc(-c2ccc(O)c(O)c2)oc2cc(OC3OC(CO)C(O)C(O)C3O)cc(O)c12 (stereo not drawn) [Luteolin-7-O-glucoside] | 445 ± 3 ^e mV |  | lower IC50 in relation to the respective aglycone [2]: 20%; IC50 [2, 5]: 0.0615 ± 0.00162 mM
